Data published in PMC10164576, “Interaction with the carboxy-terminal tip of SSB is critical for RecG function in E. coli” (Nucleic Acids Research, 2023).
Changes are numbered by the printed parent chain. Where a SMILES comes first, the peptide text is derived from it. Where no end group is shown, it is not given here. The star is where a group is joined. 6FAM = O=C1OC2(c3ccc(O)cc3Oc3cc(O)ccc32)c2cc(C(=O)*)ccc21

Tests used:
[1] = test system: SSB-interacting proteins (SIPs); conditions: cited from earlier work
From the text: Most SSB-interacting proteins (SIPs) studied to date appear to share a conserved mode of SSB recognition in which they dock onto the SSB-Ct. Several SIPs have been co-crystalized with SSB-Ct peptides and their SSB-binding pockets have been validated in biochemical and/or genetic studies ([10],[12],[19],[20],[35]). SSB-Ct binding pockets have also been successfully predicted through computational methods ([36–39]). […] However, structural data ([31],[36],[108]) and predictions ([80]) reveal that the IDL is unstructured, and the length of IDLs across bacterial species varies greatly ([41]). […] Similarly, SSB fluorescent fusion proteins where GFP ...

[2] = test system: E. coli ssb mutant strains (ssbΔ151–166, ssbΔ139–164, ssbΔ130–166); test: DNA damage sensitivity spot plate assay of ssb IDL deletion strains; format: cell-based; conditions: ssbΔ151–166, ssbΔ139–164 and ssbΔ130–166 versus MG1655; LB plates, 37°C overnight
Protocol: MG1655, recG, and ssb IDL mutant strains were tested for sensitivity to UV light, ciprofloxacin, or mitomycin C. A ΔrecA strain (EAW20) was used as a sensitive control in the ssb IDL experiments. Overnight cultures set in biological triplicate were used to inoculate fresh LB. Cells were grown at 37°C with shaking to an OD600 nm of 0.2 and serially diluted 10-fold in 1 × PBS. Ten μl of each dilution was spotted onto square LB agar plates (for UV) or LB plates containing DNA damaging agents (ciprofloxacin or mitomycin C) poured fresh and kept in the dark. UV sensitivity plates were exposed to shortwave light (254 nm) using a Spectrolinker XL-1000 UV crosslinker (Spectronics Corp) and incubated at 37°C overnight in the dark. Plates were imaged on an iBright Imaging System. […] Briefly, dilutions of each strain were plated onto an LB plate exposed to 0, 50 or 100 J/m^2. Plates were incubated under foil at 37°C overnight, and colonies were counted to obtain colony forming units (CFU)/ml and percent relative survival values. […]
(A) Spot plate assay showing growth of 10-fold serially diluted MG1655 (wildtype ssb), ΔrecA, ssbΔ151–166, ssbΔ139–164, ssbΔ130–166, and ssbΔ120–166 strains exposed to varying UV (top), ciprofloxacin (center), or mitomycin C (bottom) doses. (B) Quantification of strain UV percent survival relative to CFU/ml of the strain at no UV exposure.

RecG (WT) = target: T1, RecG (WT) (Escherichia coli, UniProt P24230); test: Fluorescence anisotropy binding of 6-FAM-labelled SSB peptides to wildtype RecG; design: species or system E. coli; conditions: read-out: FP K D; WT RecG; fluorescence anisotropy; 10 nM N-terminal 6-FAM peptide; 0.2 M potassium glutamate, 25 mM Tris-acetate pH 7.6, 10 mM magnesium acetate; 30 min at room temperature, read at 25°C; one site fit; triplicate
T1 construct: RecG was expressed in STL2669/pT7pol26 (a gift from Dr Susan Lovett, Brandeis University) with overexpression plasmid pEAW111; made in house; host or cells: E. coli STL2669/pT7pol26
Protocol: SSB peptides (sequences listed in Figure 2) were designed with an N-terminal tryptophan residue for quantification and N-terminal 6-FAM label (Genscript). RecG was incubated with 0.2 M potassium glutamate, 1 mM DTT, 0.1 μg/ml BSA, 1 × RecA buffer (25 mM Tris-acetate, pH 7.6, 5% w/v glycerol, 3 mM potassium glutamate, 10 mM magnesium acetate, 1 mM DTT), and 10 nM labeled peptide at room temperature for 30 min. Fluorescence polarization (FP) values were measured at 25°C using a Beacon 2000 Fluorescence Polarization System. Polarization values were normalized to the FP value measured at 0 nM RecG. Normalized FP was converted to normalized anisotropy. Experiments were performed in triplicate, and the data were fit to a one site binding model (, where X is ligand concentration, Y is normalized anisotropy, Bmax is the maximum anisotropy, and KD is the dissociation constant) using GraphPad Prism Software.
Figure 2. RecG binds directly and specifically to the SSB-Ct. (A) Fluorescence anisotropy binding isotherms for RecG binding to SSB-Ct (black), SSB113 (violet), SSBΔF (blue), or SSB IDL (green) peptides. Peptide sequences are listed in parentheses with * representing an N-terminal 6-FAM label. Anisotropy values are normalized to the reading at 0 μM RecG. […] (B–E) ITC analysis of RecG/SSB binding. Thermograms (top) and binding isotherms (bottom) of titrations of (B) full-length SSB, (C) SSB-Ct peptide, (D) SSBΔF or (E) SSBΔF peptide into RecG solutions.
Two models explaining how RecG interacts with SSB have been proposed - RecG could interact with the SSB-Ct ([29]) or RecG could interact with the IDL ([48],[49]). To begin testing each model, we used an equilibrium fluorescence anisotropy assay to measure RecG binding to fluorescently labeled SSB-Ct or IDL peptides (Figure 2). Titration of RecG with the SSB-Ct peptide led to an increase in fluorescence anisotropy, which occurs when protein binding slows the tumbling rate of a labeled peptide ([90]). […] KD values in the low micromolar range are typical for SSB/SIP complexes ([10],[12–14],[19],[23]). […]

AlkB protein = conditions: peptide identical to IDL residues 152–169; cited from earlier work
From the text: The IDL peptide that was used included residues 152–169 of SSB, which has two of the three PxxP motifs in E. coli SSB.

[3] = target: T2, RecG DNA helicase, wildtype (E. coli, UniProt P24230 1-693); test: fluorescence polarisation; RecG titrated against 10 nM 6-FAM peptide; 0.2 M potassium glutamate, 1 mM DTT, 0.1 μg/ml BSA, 1x RecA buffer (25 mM Tris-acetate pH 7.6, 5% glycerol, 10 mM magnesium acetate); 30 min at room temperature, read at 25°C; one site binding model, triplicate; conditions: both partners purified
T2 construct: RecG DNA helicase, E. coli, expressed from overexpression plasmid pEAW111; No tag is mentioned; also called WT RecG; source: E. coli STL2669/pT7pol26 with pEAW111, purified (ammonium sulfate, DEAE, Source 15Q, Source 15S)
T2 sequence (looked up): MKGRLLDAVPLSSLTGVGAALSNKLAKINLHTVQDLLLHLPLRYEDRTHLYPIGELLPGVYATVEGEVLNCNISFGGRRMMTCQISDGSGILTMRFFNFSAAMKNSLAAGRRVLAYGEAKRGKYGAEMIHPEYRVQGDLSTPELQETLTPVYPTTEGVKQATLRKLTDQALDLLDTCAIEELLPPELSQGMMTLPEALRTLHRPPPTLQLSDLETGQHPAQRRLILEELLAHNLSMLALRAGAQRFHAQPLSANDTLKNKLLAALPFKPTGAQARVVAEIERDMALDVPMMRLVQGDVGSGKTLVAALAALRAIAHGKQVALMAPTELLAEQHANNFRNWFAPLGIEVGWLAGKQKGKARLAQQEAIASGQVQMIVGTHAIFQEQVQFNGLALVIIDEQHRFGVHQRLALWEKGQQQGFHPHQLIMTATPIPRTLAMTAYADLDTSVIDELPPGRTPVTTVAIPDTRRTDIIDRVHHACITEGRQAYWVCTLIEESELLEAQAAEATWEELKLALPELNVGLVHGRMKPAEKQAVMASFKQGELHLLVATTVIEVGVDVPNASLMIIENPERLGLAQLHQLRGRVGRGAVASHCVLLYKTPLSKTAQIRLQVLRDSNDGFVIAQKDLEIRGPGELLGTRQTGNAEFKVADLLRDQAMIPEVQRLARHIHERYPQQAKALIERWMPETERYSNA

RecG R95A = target: T3, RecG R95A (E. coli, UniProt P24230 1-693, R95A); test: as above; conditions: both partners purified
T3 construct: RecG DNA helicase, E. coli, R95A introduced into pEAW111 to give pEAW1324; The preparation included a very weak nickase contaminant; source: E. coli STL2669/pT7pol26 with pEAW1324, purified (same scheme as wildtype RecG)
T3 sequence (looked up): T2 sequence (looked up) with R95A

[4] = target: SSB113 peptide, 6-FAM labelled (E. coli) (UniProt P0AGE0); test: as above
[5] = target: SSBΔF peptide, 6-FAM labelled (E. coli); test: as above

Sequence of SSB113 peptide, 6-FAM labelled (E. coli) (P0AGE0 whole entry, looked up): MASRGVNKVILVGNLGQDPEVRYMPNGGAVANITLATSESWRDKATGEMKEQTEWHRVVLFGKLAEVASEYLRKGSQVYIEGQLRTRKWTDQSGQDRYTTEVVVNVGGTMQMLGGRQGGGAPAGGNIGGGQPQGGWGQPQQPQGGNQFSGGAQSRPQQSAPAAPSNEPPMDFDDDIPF

For “SSB113 protein: SSB with a Ser for the penultimate Pro of the SSB-Ct (ssb-113 mutation)”, the “affinity for SIPs, in words” value ([1]; SSB113) is given as “greatly reduced affinity for SIPs”.

With `O=C(O)c1cn(C2CC2)c2cc(N3CCNCC3)c(F)cc2c1=O` [ciprofloxacin] the “DNA damage sensitivity of ssb IDL deletion strains, in words” value [2] was “no change in DNA damage sensitivity compared to MG1655”.

For “SSBΔF: SSB protein variant lacking the C-terminal-most Phe residue”, the “interaction with SIPs, in words (SSB-Ct deletions)” value ([1]; in vitro) is given as “eliminates interactions between SSB and SIPs in vitro”.

For `C[C@H](NC(=O)[C@H](Cc1c[nH]c2ccccc12)NC(=O)c1ccc2c(c1)C1(OC2=O)c2ccc(O)cc2Oc2cc(O)ccc21)C(=O)N[C@@H](CCC(N)=O)C(=O)N[C@@H](CO)C(=O)N[C@@H](CCCNC(=N)N)C(=O)N1CCC[C@H]1C(=O)N[C@@H](CCC(N)=O)C(=O)N[C@@H](CCC(N)=O)C(=O)N[C@@H](CO)C(=O)N[C@@H](C)C(=O)N1CCC[C@H]1C(=O)N[C@@H](C)C(=O)N[C@@H](C)C(=O)N1CCC[C@H]1C(=O)N[C@@H](CO)C(=O)N[C@@H](CC(N)=O)C(=O)N[C@@H](CCC(=O)O)C(=O)N1CCC[C@H]1C(=O)O` [IDL 152–169 peptide] (6FAM-WAQSRPQQSAPAAPSNEP-OH; C-terminus assumed), the Kd (RecG (WT)) is listed as > 30 µM and the “binding to AlkB, in words” value (AlkB protein) is listed as “previously reported to bind to the AlkB protein”.

For `CO[C@@]12[C@H](COC(N)=O)C3=C(C(=O)C(C)=C(N)C3=O)N1C[C@@H]1N[C@@H]12` [mitomycin C], the “DNA damage sensitivity of ssb IDL deletion strains, in words” value [2] was “no change in DNA damage sensitivity compared to MG1655”.

B1: SSB-Ct peptide, 6-FAM labelled (peptide)
peptide: 6FAM-WMDFDDDIPF
notes: N-terminal tryptophan residue added for quantification; C-terminal tip of SSB, E. coli; also called fluorescently labeled SSB-Ct peptide; source: synthetic peptide (Genscript)
Molecule B1 has a Kd [3] of 3.1 ± 0.4 µM and a Kd (RecG R95A) of 1.8 ± 0.4 µM.

B2: RecG DNA helicase, wildtype (enzyme)
chain: T2 sequence (looked up)
With B2 the Kd [4] was 23 µM and the Kd [5] was > 30 µM.
